In data set [1] the target is T1, CDK2 (cyclin A or cyclin E) (Homo sapiens, UniProt P24941).
T1 construct: The expressed protein was approximately 34 kDa in size; made in house; host or cells: SF9 insect cells (recombinant baculovirus, pFASTBAC)
In words: CDK2 in vitro kinase assay (cyclin A or cyclin E dependent), SPA with biotinylated Histone H1 peptide. It is filed as biochemical. Conditions: for IC50: CDK2 with cyclin A or cyclin E, 33P-ATP SPA, 1 hour at room temperature; for inhibition at 0.05 µg/mL: compound at 0.05 ug/mL, read-out: % INH @ 0.05 ug/mL; for inhibition at 0.5 µg/mL: compound at 0.5 ug/mL, read-out: % INH @ 0.5 ug/mL.

Usually melting point stands for the temperature, or range, at which the solid turns liquid. As for `Brc1cnc2c(NCCc3ccncc3)nc(-c3ccccc3)cn12`, the melting point was 177 to 179 °C.
The same measure, in the same setting: in the case of `Brc1cnc2c(NCCc3cccnc3)nc(-c3ccccc3)cn12` it was 120 to 122 °C; in that of `Brc1cnc2c(NC3CCCCC3)nc(-c3ccccc3)cn12`, 145 to 146 °C; in that of `Ic1cnc2c(NCc3cccnc3)nc(-c3ccccc3)cn12`, 204 to 206 °C.
Same read-out and setting: in the case of `Ic1cnc2c(NCc3ccncc3)nc(-c3ccccc3)cn12` it was 139 to 141 °C; in that of `O=C(c1cccc(C(F)(F)F)c1)N1CCC(Nc2nc(-c3ccccc3Cl)cn3c(Br)cnc23)CC1`, 175 to 177 °C.
For `Clc1ccccc1-c1cn2c(I)cnc2c(NCc2ccncc2)n1`, the melting point is 162 to 164 °C.
The same measure, in the same setting: in the case of `Clc1ccccc1-c1cn2c(Cl)cnc2c(NCc2cccnc2)n1` it was 127 to 129 °C; in that of `Brc1cnc2c(Nc3ccccc3)nc(-c3ccccc3)cn12`, 169 to 170 °C.
On the same count and under the same terms, in the case of `Cc1cnc2c(NCc3ccccc3)nccn12` it was 152 to 154 °C.
Consider `Cc1cnc2c(NCCc3ccncc3)nccn12`, for which the melting point lay in the range of 130 to 132 °C.
The same measure, in the same setting: in the case of `COCCNc1nccn2c(C)cnc12` it was 104 to 105 °C.
On the same count and under the same terms, in the case of `Cc1cnc2c(Nc3ccccc3)nccn12` it was 182 to 184 °C.
Still for that read-out and setting: in the case of `Cc1cnc2c(NCc3ccncc3)nccn12` it was 183 to 185 °C; in that of `Cc1cnc2c(NC(c3ccccc3)c3ccccc3)nccn12`, 186 to 188 °C.
The compound `Cc1cnc2c(NCc3cccnc3)nccn12` had a melting point of 143 to 145 °C.
Usually IC50 stands for the concentration that gives 50% inhibition. The compound `Clc1ccccc1-c1cn2c(Br)cnc2c(NCc2ccncc2)n1` came in with a half-maximal inhibitory concentration (IC50) in data set [1] of 0.49 µM.
As for `Clc1ccccc1-c1cn2c(Br)cnc2c(NCc2cccnc2)n1`, in data set [1], the IC50 amounted to 0.24 µM, the inhibition at 0.05 µg/mL amounted to 47.4% and the inhibition at 0.5 µg/mL came out at 88.6%.
Regarding `Clc1ccccc1-c1cn2c(I)cnc2c(NCc2cccnc2)n1`, the IC50 in data set [1] was determined as 0.23 µM.
On the same count and under the same terms, in the case of `c1ccc(-c2cn3c(-c4ccccc4)cnc3c(NCc3cccnc3)n2)cc1` it was 6.7 µM; in that of `FC(F)(F)c1ccc(CNc2nc(-c3ccccc3)cn3c(Br)cnc23)cn1`, 4.55 µM; in that of `CC(=O)c1cnc2c(NCc3cccnc3)nc(-c3ccccc3)cn12`, 4.7 µM.
Turning to `CC(CO)Nc1nc(-c2ccccc2Cl)cn2c(Br)cnc12` (stereo not shown), in data set [1], it took 0.2 µM to reach half-maximal inhibition (IC50), the inhibition at 0.05 µg/mL was 63% and the inhibition at 0.5 µg/mL came out at 92.7%.
For `COCCCNc1nc(-c2ccccc2Cl)cn2c(Br)cnc12`, in data set [1], the inhibition at 0.05 µg/mL amounted to 30.7% and the inhibition at 0.5 µg/mL was 71.5%.
The corresponding values for `Clc1ccccc1-c1cn2c(Br)cnc2c(NCCCn2cccc2)n1` are 42.2% and 48.8%.
The corresponding values for `Clc1ccccc1-c1cn2c(Br)cnc2c(NCCCn2ccnc2)n1` are 37.5% and 29.4%.
For `O=C1CCCN1CCCNc1nc(-c2ccccc2Cl)cn2c(Br)cnc12`, in that order: 30.7% and 67.8%.
As to `Cc1cnc2c(Nc3ccccc3)nccn12` [drawing 711], the midpoint of inhibition in data set [1], the IC50, lay at 15 µM.
On the same count and under the same terms, in the case of `Cc1cnc2c(NCc3ccncc3)nccn12` [drawing 712] it was 22.5 µM; in that of `Brc1cnc2c(NCCc3cccnc3)nc(-c3ccccc3)cn12` [drawing 713], 4.18 µM; in that of `Ic1cnc2c(NCc3ccncc3)nc(-c3ccccc3)cn12` [drawing 714], 0.53 µM.
On the same count and under the same terms, in the case of `Clc1ccccc1-c1cn2c(Cl)cnc2c(NCc2cccnc2)n1` [drawing 718] it was 0.43 µM.

The values above are taken from patent publication US7576085B2, “Imidazopyrazines as cyclin dependent kinase inhibitors” (Schering Corporation, priority 2002, dated 2009).
